These compounds were tested against T1, PI3K (p110α/p85α) (Homo sapiens, UniProt P42336) (assay: PI3K Activity Assay (ADP Hunter Plus)). Conditions: quantitative results of Table 4; read-out: PI3Kα IC50.
T1 construct: purchased Carna Biosciences 07CBS-0402A
Format: biochemical
Method: The kinase activity was measured by using the commercial ADP Hunter™ Plus assay available from DiscoveRx (#33-016), which is a homogeneous assay to measure the accumulation of ADP, a universal product of kinase activity. […] Reaction was carried out for 1 hour at 25° C. Reagent A and B were sequentially added to the wells and plates were incubated for 30 min at 37° C. […] Values were normalized against the control activity included for each enzyme (i.e., 100% PI3 kinase activity, without compound). These values were plot against the inhibitor concentration and were fit to a sigmoid dose-response curve by using the Graphad software.

T1 sequence (P42336 whole entry): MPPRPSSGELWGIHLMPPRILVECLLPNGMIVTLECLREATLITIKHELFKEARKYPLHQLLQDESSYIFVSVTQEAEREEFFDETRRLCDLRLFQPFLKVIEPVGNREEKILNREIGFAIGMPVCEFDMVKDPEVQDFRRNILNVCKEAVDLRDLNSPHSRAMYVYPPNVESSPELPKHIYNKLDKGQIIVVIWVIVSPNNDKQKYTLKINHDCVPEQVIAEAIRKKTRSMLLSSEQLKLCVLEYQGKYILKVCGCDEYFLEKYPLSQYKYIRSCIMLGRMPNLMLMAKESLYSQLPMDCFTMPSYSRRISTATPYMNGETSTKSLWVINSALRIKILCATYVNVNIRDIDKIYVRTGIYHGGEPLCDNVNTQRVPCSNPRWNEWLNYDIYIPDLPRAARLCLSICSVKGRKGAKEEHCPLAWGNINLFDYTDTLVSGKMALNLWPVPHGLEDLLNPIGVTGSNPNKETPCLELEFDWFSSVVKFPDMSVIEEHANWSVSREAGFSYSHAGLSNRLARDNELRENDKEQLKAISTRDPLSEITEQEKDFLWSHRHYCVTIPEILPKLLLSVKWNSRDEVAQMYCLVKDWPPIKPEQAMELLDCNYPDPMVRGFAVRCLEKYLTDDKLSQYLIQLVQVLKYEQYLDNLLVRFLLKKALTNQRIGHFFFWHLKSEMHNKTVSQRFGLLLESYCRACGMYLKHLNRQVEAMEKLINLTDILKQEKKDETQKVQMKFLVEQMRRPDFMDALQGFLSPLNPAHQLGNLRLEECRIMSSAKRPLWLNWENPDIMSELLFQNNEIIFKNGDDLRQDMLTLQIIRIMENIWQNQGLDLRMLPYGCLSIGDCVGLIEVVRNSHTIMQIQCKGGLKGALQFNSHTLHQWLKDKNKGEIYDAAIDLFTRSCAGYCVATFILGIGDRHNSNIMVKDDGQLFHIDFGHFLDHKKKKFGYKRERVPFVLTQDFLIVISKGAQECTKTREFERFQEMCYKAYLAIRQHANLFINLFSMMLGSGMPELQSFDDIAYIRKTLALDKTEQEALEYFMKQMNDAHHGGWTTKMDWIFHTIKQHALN
T1 sequence (P27986 whole entry partner): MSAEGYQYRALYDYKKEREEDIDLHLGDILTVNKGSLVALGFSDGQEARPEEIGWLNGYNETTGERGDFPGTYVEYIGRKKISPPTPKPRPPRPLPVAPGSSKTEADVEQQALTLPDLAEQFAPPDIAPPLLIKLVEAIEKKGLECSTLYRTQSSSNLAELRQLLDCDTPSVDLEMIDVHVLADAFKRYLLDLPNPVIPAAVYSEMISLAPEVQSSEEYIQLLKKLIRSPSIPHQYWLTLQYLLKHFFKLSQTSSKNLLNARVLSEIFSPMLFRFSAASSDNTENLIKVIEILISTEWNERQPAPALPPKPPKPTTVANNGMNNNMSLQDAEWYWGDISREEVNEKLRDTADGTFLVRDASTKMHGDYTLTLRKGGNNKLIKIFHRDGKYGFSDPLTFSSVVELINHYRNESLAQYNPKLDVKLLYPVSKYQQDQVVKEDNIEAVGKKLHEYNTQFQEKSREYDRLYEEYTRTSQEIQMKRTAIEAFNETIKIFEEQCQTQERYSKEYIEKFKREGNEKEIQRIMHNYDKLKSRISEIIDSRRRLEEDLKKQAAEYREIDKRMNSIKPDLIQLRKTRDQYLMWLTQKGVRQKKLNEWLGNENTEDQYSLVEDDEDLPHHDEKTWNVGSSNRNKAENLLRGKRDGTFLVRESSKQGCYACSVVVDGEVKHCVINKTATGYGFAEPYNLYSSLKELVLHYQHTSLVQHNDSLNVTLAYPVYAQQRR

SMILES | IC50 [µM]
CC(C)(C)OC(=O)N1CCC2(CCN(Cc3cn4cc(-c5cccc6[nH]ncc56)nc(N5CCOCC5)c4n3)CC2)CC1 [2-98] | 7.2
CC(C)(C)OC(=O)N1CC2CN(Cc3cn4cc(-c5cccc6[nH]ncc56)nc(N5CCOCC5)c4n3)CC2C1 (centres unmarked) [2-99] | 7.9
CC(C)(C)OC(=O)N1CCC2(CCN(Cc3cn4cc(-c5cccc6[nH]ncc56)nc(N5CCOCC5)c4n3)C2)CC1 [2-100] | 5.3
NC(=O)c1cn2cc(-c3cccc4[nH]cc(Cl)c34)nc(N3CCOCC3)c2n1 [2-103] | 34
NC(=O)c1cn2c(Cl)c(-c3cccc4[nH]cc(Cl)c34)nc(N3CCOCC3)c2n1 [2-104] | 93
NC(=O)c1cn2cc(-c3c(F)ccc4[nH]cc(Cl)c34)nc(N3CCOCC3)c2n1 [2-105] | 123
NC(=O)c1cn2c(Cl)c(-c3c(F)ccc4[nH]cc(Cl)c34)nc(N3CCOCC3)c2n1 [2-106] | 28
COC(=O)Cc1cn2cc(-c3cccc4[nH]ncc34)nc(N3CCOCC3)c2n1 [2-107] | 2.6
COc1ccc(-c2nc(N3CCOCC3)c3nc(CN4CCN(S(C)(=O)=O)CC4)cn3c2Cl)cn1 [2-109] | 1
c1cc(-c2cn3cc(CN4CCC5(CCNCC5)CC4)nc3c(N3CCOCC3)n2)c2cn[nH]c2c1 [2-111] | 0.813
c1cc(-c2cn3cc(CN4CC5CNCC5C4)nc3c(N3CCOCC3)n2)c2cn[nH]c2c1 (centres unmarked) [2-117] | 0.851
c1cc(-c2cn3cc(CN4CCC5(CCNCC5)C4)nc3c(N3CCOCC3)n2)c2cn[nH]c2c1 [2-118] | 1.5
NC(=O)c1cn2cc(-c3cnc(N)nc3)nc(N3CCCCC3)c2n1 [2-120] | 1.3
CS(=O)(=O)N1CCN(Cc2cn3cc(-c4c(F)ccc5[nH]cc(Cl)c45)nc(N4CCOCC4)c3n2)CC1 [2-122] | 50
Cc1ccc(-c2cn3cc(CN4CCN(S(C)(=O)=O)CC4)nc3c(N3CCOCC3)n2)cn1 [2-126] | 0.776
CS(=O)(=O)N1CCC2(CCN(Cc3cn4cc(-c5cccc6[nH]ncc56)nc(N5CCOCC5)c4n3)C2)CC1 [2-129] | 2.5

SMILES | IC50 [µM]
O=C1NCCC12CCN(Cc1cn3cc(-c4cccc5[nH]ncc45)nc(N4CCOCC4)c3n1)CC2 [2-130] | 1.4
O=C1CC2(CCN(Cc3cn4cc(-c5cccc6[nH]ncc56)nc(N5CCOCC5)c4n3)CC2)CN1 [2-131] | 14
CS(=O)(=O)N1CCC2(CCN(Cc3cn4cc(-c5cccc6[nH]ncc56)nc(N5CCOCC5)c4n3)CC2)C1 [2-134] | 5.2
CCOC(=O)c1cn2cc(-c3cnc(N)nc3)nc(N3CCOCC3)c2n1 [2-138] | 0.012
CN(C)CCNC(=O)c1cn2cc(-c3cccc4[nH]ncc34)nc(N3CCOCC3)c2n1 [2-141] | 0.065
CN(C)CCNC(=O)c1cn2cc(-c3cccnc3)nc(N3CCOCC3)c2n1 [2-147] | 0.832
CS(=O)(=O)N1CCC2(CCN(Cc3cn4cc(-c5cccc6[nH]ncc56)nc(N5CCOCC5)c4n3)CC2)CC1 [2-149] | 1.3
CS(=O)(=O)N1CCC2(CC1)CN(Cc1cn3cc(-c4cccc5[nH]ncc45)nc(N4CCOCC4)c3n1)C2 [2-150] | 2.8
Cc1ccncc1-c1cn2cc(CN3CCN(S(C)(=O)=O)CC3)nc2c(N2CCOCC2)n1 [2-152] | 0.468
COc1cc(C)c(-c2cn3cc(CN4CCN(S(C)(=O)=O)CC4)nc3c(N3CCOCC3)n2)cn1 [2-153] | 2.4
CC(=O)NCCNC(=O)c1cn2cc(-c3cccc4[nH]ncc34)nc(N3CCOCC3)c2n1 [2-157] | 0.776
CC(=O)NCCNC(=O)c1cn2cc(-c3cccnc3)nc(N3CCOCC3)c2n1 [2-158] | 2.3
O=C(NCCN1CCOCC1)c1cn2cc(-c3cccnc3)nc(N3CCOCC3)c2n1 [2-159] | 0.398
Cc1cn2cc(-c3cnc(N)nc3)nc(-c3ccncc3)c2n1 [2-166] | 1.8
Cc1cn2cc(-c3cccc4[nH]ncc34)nc(-c3ccncc3)c2n1 [2-168] | 26
CS(=O)(=O)N1CCC2(CC1)CN(Cc1cn3cc(-c4cnc(N)nc4)nc(N4CCOCC4)c3n1)C2 [2-169] | 0.11
